Calls of active or inactive are those of the source. For most assays here, no stated cut-off is given here; in the data, actives have a measured IC50 and inactives only a lower limit.
How the values were obtained:
Large T antigen = Large T antigen (Simian virus 40, UniProt P03070); format: functional, Betapolyomavirus macacae;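 further: Confirmatory-stage PubChem screen for compounds that inhibit SV40 T antigen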
[1] = biological target: T1, Sentrin-specific protease 8 (Homo sapiens, UniProt Q96LD8); format: functional;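 further: luminescence read-out of SENP8 inhibition, dose-response confirmation following an ultra-high-throughput screen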
T1 sequence (Q96LD8 whole entry): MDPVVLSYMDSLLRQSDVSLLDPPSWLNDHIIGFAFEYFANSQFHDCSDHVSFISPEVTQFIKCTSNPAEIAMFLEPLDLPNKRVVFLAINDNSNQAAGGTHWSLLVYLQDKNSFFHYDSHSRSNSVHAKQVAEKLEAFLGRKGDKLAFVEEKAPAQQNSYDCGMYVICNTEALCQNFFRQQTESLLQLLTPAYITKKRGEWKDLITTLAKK

[2] = biological target: T2, Sentrin-specific protease 6 (Homo sapiens, UniProt Q9GZR1); format: functional;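 further: Luminescence-based dose-response confirmatory assay of SENP6 inhibition, following up an ultra-high-throughput screen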
T2 sequence (Q9GZR1 whole entry): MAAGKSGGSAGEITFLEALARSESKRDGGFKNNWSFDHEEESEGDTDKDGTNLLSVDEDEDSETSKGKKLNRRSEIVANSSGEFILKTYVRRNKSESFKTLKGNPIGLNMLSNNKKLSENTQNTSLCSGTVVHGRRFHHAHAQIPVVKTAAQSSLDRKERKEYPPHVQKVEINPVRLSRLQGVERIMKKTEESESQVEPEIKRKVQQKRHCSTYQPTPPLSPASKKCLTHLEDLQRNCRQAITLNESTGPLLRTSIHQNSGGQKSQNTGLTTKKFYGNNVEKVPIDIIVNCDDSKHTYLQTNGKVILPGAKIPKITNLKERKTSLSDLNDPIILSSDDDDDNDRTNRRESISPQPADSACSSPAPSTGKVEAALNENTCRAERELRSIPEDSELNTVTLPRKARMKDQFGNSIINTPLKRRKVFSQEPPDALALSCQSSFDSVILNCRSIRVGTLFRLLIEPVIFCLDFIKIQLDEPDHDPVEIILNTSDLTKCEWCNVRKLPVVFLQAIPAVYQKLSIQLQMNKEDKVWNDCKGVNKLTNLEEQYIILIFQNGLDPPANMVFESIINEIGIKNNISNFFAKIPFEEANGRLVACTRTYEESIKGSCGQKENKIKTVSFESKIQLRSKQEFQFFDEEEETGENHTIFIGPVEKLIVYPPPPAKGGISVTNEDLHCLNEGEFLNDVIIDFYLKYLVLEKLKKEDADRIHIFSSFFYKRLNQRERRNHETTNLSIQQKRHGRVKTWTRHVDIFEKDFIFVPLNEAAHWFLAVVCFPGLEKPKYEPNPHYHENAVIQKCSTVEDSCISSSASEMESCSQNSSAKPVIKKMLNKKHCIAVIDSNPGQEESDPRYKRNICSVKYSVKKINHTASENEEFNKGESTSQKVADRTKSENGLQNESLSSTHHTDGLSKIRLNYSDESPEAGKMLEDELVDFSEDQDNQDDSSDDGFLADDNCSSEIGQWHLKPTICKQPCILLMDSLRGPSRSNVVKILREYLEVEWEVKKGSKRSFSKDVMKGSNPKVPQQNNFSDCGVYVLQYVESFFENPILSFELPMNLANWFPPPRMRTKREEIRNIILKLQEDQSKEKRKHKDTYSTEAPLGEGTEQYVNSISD

Caspase-3 = biological target: T3, Caspase-3 (Homo sapiens, UniProt P42574); format: functional;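 further: Dose-response selectivity test against caspase-3 for candidate inhibitors of sentrin-specific proteases (SENPs)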
T3 sequence (P42574 whole entry): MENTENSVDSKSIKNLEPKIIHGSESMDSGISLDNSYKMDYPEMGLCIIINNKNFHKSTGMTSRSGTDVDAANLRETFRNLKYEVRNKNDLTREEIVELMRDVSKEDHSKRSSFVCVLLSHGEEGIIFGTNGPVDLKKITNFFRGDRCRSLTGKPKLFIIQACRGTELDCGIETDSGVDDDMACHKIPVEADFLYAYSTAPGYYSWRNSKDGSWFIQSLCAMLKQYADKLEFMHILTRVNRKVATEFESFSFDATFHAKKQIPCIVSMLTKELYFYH

[3] = biological target: T4, Sentrin-specific protease 7 (Homo sapiens, UniProt Q9BQF6); format: functional;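 further: Luminescence-based dose-response confirmation of ultra-high-throughput screening hits, measuring inhibition of SENP7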
T4 sequence (Q9BQF6 whole entry): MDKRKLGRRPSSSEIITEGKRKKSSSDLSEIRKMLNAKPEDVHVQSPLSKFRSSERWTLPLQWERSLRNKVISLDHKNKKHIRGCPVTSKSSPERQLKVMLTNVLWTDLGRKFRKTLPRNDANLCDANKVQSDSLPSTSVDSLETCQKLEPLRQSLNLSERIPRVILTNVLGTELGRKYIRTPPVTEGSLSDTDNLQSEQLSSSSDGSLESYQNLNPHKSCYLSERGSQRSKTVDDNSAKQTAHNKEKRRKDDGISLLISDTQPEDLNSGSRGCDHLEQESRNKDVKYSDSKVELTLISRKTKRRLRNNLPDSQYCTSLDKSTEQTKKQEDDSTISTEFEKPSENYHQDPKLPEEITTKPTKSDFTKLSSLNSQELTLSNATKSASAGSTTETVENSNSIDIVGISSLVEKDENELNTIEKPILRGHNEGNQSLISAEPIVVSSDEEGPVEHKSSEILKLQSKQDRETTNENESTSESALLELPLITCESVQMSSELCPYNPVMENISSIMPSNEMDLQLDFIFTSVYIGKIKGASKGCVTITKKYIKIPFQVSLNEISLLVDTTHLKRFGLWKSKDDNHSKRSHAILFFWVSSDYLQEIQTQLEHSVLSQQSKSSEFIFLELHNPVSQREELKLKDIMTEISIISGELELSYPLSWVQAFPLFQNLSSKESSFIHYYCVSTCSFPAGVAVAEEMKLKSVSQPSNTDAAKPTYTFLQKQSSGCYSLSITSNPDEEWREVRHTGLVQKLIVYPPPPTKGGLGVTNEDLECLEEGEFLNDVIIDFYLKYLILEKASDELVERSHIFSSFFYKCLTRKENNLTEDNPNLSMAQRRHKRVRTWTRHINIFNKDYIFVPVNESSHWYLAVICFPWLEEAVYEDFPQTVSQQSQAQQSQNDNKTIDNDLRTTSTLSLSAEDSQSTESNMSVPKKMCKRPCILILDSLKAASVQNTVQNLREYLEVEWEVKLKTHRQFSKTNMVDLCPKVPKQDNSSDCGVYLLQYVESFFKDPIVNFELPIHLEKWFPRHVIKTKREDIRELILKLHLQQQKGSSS

[4] = biological target: Induced myeloid leukemia cell differentiation protein Mcl-1 (Homo sapiens, UniProt Q07820); format: functional
[5] = biological target: Glyceraldehyde-3-phosphate dehydrogenase (Homo sapiens, UniProt P04406)
[6] = growth suppression of beta-catenin-knockout colon cells, dose response, cell-based, HCT116, human colon tumor (AID 1045); format: functional;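 further: HCT116 colon tumor cells with beta catenin knocked out; cells exposed to compound for 60 hours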
[7] = biological target: T5, Corticotropin-releasing factor receptor 2/Corticotropin-releasing factor-binding protein (Homo sapiens, UniProt P24387+Q13324); test: activators of CRF receptor 2 with binding protein – uHTS hits, confirmation (AID 602473); format: functional; conditions: read-out: EC50_Mean
T5 sequence (Q13324 whole entry): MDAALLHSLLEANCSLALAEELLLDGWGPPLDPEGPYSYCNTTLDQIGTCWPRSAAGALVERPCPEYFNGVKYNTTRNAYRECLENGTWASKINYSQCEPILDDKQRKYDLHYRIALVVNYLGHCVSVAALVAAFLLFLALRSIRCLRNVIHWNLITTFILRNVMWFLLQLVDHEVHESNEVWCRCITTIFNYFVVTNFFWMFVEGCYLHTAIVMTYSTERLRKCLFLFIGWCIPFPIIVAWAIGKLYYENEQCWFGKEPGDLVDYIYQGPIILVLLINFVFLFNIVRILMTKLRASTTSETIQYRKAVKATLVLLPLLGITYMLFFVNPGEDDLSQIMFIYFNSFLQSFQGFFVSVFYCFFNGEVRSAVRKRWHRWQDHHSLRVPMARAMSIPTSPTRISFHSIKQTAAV
T5 sequence (P24387 whole entry): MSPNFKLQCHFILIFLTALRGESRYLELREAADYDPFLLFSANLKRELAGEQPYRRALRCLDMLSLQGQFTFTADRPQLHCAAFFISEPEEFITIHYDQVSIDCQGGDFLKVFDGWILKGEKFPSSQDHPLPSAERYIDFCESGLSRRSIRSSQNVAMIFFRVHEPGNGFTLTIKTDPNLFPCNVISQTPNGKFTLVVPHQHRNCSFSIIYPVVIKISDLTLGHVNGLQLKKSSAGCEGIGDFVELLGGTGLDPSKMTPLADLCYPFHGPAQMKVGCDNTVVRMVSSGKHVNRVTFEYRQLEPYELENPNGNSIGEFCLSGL

[8] = biological target: T5, Corticotropin-releasing factor receptor 2/Corticotropin-releasing factor-binding protein; test: Dose Response confirmation of uHTS hits for small molecule antagonists of the CRF-binding protein and CRF-R2 receptor complex.; format: functional; conditions: read-out: IC50_Mean
[9] = biological target: T6, Heat shock factor protein 1 (Mus musculus, UniProt P38532); test: HSF1 potentiators in luciferase reporter cells, confirmation, cell-based, NIH3T3, luminescence, dose retest (AID 435004); format: functional;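 further: stress induced by proteasome inhibitor MG132 added 30 min after compound; luciferase reporter driven by HSF1 response element in NIH3T3 cells; actives raise luminescence as potentiators of the MG132 stress response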
T6 sequence (P38532 whole entry): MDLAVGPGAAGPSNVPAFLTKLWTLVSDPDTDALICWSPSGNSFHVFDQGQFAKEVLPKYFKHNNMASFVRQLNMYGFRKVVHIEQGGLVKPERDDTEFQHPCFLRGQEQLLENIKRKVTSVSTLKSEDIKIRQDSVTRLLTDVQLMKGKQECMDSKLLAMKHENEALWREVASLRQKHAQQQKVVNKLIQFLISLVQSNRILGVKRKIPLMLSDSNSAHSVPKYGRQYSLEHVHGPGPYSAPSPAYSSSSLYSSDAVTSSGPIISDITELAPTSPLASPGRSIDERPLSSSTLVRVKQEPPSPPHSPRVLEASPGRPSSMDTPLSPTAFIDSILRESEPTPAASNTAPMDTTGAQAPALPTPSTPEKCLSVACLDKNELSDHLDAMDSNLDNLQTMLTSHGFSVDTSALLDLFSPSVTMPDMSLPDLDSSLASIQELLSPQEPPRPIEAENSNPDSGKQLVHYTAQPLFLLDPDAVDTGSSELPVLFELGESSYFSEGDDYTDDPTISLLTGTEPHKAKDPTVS

Glyceraldehyde-3-phosphate dehydrogenase, sequence (P04406 whole entry): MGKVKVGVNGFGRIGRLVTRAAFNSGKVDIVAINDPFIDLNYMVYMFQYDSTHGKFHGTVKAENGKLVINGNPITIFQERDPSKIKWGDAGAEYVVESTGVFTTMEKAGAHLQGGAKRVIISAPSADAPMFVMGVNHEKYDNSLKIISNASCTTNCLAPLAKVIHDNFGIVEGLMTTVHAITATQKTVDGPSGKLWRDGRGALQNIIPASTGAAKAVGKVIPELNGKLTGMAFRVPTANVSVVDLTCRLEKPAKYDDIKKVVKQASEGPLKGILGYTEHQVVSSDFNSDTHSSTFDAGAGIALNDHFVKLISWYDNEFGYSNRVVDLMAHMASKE
Large T antigen, sequence (P03070 whole entry): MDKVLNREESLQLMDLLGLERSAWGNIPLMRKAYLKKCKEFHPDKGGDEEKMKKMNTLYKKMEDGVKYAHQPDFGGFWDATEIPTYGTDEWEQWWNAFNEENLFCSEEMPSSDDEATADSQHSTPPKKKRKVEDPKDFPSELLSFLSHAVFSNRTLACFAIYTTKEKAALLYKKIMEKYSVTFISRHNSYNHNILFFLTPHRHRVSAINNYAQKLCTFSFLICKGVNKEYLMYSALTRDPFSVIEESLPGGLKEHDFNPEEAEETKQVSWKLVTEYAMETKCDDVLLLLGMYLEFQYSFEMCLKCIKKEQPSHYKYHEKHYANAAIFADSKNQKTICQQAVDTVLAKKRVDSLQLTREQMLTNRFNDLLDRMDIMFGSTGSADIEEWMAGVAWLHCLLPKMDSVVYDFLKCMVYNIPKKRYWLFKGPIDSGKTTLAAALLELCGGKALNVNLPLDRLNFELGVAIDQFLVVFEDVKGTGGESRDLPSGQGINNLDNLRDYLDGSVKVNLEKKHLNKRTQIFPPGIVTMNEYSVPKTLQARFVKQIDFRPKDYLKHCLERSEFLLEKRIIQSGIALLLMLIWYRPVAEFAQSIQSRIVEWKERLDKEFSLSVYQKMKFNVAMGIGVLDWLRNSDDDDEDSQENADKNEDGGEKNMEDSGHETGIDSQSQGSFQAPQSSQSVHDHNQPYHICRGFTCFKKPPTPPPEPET
Induced myeloid leukemia cell differentiation protein Mcl-1, sequence (Q07820 whole entry): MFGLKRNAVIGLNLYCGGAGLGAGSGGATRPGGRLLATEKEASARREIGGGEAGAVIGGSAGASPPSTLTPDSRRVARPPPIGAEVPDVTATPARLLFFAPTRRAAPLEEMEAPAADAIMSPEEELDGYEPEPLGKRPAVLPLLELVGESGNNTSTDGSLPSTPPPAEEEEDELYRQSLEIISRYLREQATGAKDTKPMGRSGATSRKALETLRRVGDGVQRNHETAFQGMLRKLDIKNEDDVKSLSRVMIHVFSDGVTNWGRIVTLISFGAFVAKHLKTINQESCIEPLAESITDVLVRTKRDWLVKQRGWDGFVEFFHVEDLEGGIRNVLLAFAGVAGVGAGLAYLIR

| IC50 (Large T antigen) | IC50 [2] | IC50 (Caspase-3) | IC50 [3] | Compound | IC50 [1] | also measured |
| --- | --- | --- | --- | --- | --- | --- |
| > 100 µM (active) |  |  |  | N#CC1=C2SCN(Cc3ccco3)CN2C(=O)CC1c1ccc(Cl)cc1 (stereo unspecified) |  |  |
|  | 11.5 µM (active) | 13.3 µM (active) | 8.96 µM (active) | COc1ccc(C(=O)O/N=C(\N)c2ccc(OC)c(OC)c2)cc1 | 11.5 µM (active) |  |
|  |  |  |  | Cc1nc(N)sc1-c1csc(Nc2ncccn2)n1 |  | IC50 [4]: 3.69 µM (active) |
|  |  |  |  | O=C(O)/C=C/C(=O)Nc1ccc2c(c1)C(=O)c1ccccc1C2=O |  | IC50 [5]: > 100 µM (not active) |
|  | 10.3 µM (active) | 44.2 µM (active) | 4.46 µM (active) | COc1ccc(-c2cc(-c3cc(C)ccc3O)n[nH]2)cc1 | 9.6 µM (active) |  |
|  |  |  |  | COc1ccc(N2CCN(C3=C(Cl)C(=O)N(c4ccc(C(F)(F)F)cc4)C3=O)CC2)cc1 |  | IC50 [5]: > 12.5 µM (inconclusive) |
|  | 45.3 µM (active) | 39 µM (active) | 11.4 µM (active) | CC(=O)c1c(C)oc2ccc(OCc3ccccc3)cc12 | 75.8 µM (active) |  |
|  | 86.7 µM (active) | 45.8 µM (active) | 11.4 µM (active) | O=C(Nc1cccs1)Nc1ccc(Br)cc1F | > 100 µM (inactive) |  |
|  | 20.3 µM (active) | 17.9 µM (active) | 7.65 µM (active) | COC(=O)c1sccc1NC(=O)Cc1ccc(Br)cc1 | 24.8 µM (active) |  |
| > 100 µM (active) |  |  |  | COc1cccc(C(=O)Nc2ccc3c(c2)n(C)c(=O)n3C)c1 |  |  |
| 14.5 µM (active) |  |  |  | Cc1ccc(C(=O)C2CCN(CC(=O)Nc3ccc(N(C)C)cc3)CC2)cc1 |  |  |
|  |  |  |  | COc1ccc(N2CCN(C3=C(Cl)C(=O)N(c4ccnc(Cl)c4)C3=O)CC2)cc1 |  | IC50 [5]: > 50 µM (inconclusive) |
|  | 35.1 µM (active) | 41.7 µM (active) | 5.4 µM (active) | O=c1oc(-c2ccco2)nc2sc3c(c12)CCCC3 | > 100 µM (inactive) | EC50 [7]: > 53 µM (inactive); IC50 [8]: > 47.1 µM (inactive) |
|  | 3.22 µM (active) | 5.66 µM (active) | 2.3 µM (active) | O=C(Nc1ccc(Cl)cn1)c1ccc(Oc2ccccc2)cc1 | 3.37 µM (active) |  |
| 60.5 µM (active) |  |  |  | NC(=O)N/N=C/c1c(Sc2nnnn2-c2ccccc2)nc2ccccn2c1=O |  |  |
|  | 5.08 µM (active) | 4.38 µM (active) | 1.99 µM (active) | COc1ccc(/N=C(\C)C2=C(O)c3ccccc3C2=O)cc1 | 6.43 µM (active) | EC50 [9]: > 260 µM (inactive) |
|  | 2.34 µM (active) | 2.23 µM (active) | 2.15 µM (active) | O=C(O/N=C1\CCCc2ccccc21)c1ccc(F)cc1 | 2.09 µM (active) |  |
|  |  |  |  | O=C(O)CN1C(=O)S/C(=C\c2ccc(O)cc2)C1=O |  | IC50 [5]: > 100 µM (not active) |
| 32 µM (active) |  |  |  | O=C1c2c(O)cc(O)cc2O[C@H](c2ccc(O)c(O)c2)[C@H]1O [(+)-TAXIFOLIN] |  |  |

| Compound | IC50 (Large T antigen) | IC50 [2] | IC50 (Caspase-3) | IC50 [3] | IC50 [1] | also measured |
| --- | --- | --- | --- | --- | --- | --- |
| Cc1cc(NC(=O)CN2CCN(c3ccc(O)cc3)CC2)no1 | 9.24 µM (active) |  |  |  |  | EC50 [6]: 31.9 µM (active) |
